Where no end group is shown, it is not given here.
Tested on: HeLa-654 cells
Experiment: HeLa-654 eGFP assay (flow cytometry: mean fluorescence, gated cell count, F×C)
Assay type: cell-based, human
Method: With the 36 constructs synthesized, the ability to modulate PMO activity using the modified HeLa cell assay was tested. The HeLa-654 cells were stably transfected to express a nonfluorescent eGFP protein. The eGFP gene is interrupted by a mutant intron from the human β-globin gene (IVS2-654). The insertion alters pre-mRNA splicing to cause retention of a fragment in the mature mRNA that results in a nonfluorescent protein. PMO IVS2-654 base-pairs with the β-globin insertion, modifies mRNA splicing, and thereby leads to expression of fluorescent eGFP.
For treatment, the crude reaction mixture was diluted to 5 μM in media. The concentration of the modular construct was calculated based on the original concentration of the module 1-2 conjugate mixed in the reaction. Using media containing 10% fetal bovine serum (FBS), the cells were treated with each construct for 22 hours, after which the cellular fluorescence was measured by flow cytometry.
The different modules led to several noticeable trends in the level of cellular fluorescence (FIG. 4). When module 2 was DPV6, the overall construct consistently led to high fluorescence, regardless of which peptides were placed in module 3 and 4. However, when either pVEC or TP10 was placed in module 2, minor cellular fluorescence was observed. […]

Substance	activity relative to PMO by itself (single peptide conjugated to PMO on its own)	cell viability, in words (low micromolar concentrations of copper in cell culture)
W/R: W/R peptide (RRWWRRWRR) conjugated to PMO on its own (also: conjugated to PMO (position not given here))	around 3 ×	–
copper	–	did not affect cell viability

Reference: US12168059B2, “Trimeric peptides for antisense delivery” (Sarepta Therapeutics, Inc., priority 2018, dated 2024)
